{"source": "patent US7062219B2", "about": "“Protein fragment complementation assays for high-throughput and high-content screening” (Odyssey Thera Inc., priority 1997, dated 2006)", "key": {"NFkB (p65/p50) complex": {"test_system": "NFkB (p65/p50) complex", "assay": "transient high-content YFP PCA for NFkB (p65/p50) nuclear translocation in CHO cells", "format": "cell-based", "conditions": "40 micrograms/ml ALLN 1 hour prior to and during TNF", "experimental": "Fusion genes were subcloned into pCDNA3.1 expression vectors (Invitrogen) with a Zeocin selectable marker for YFP[1]-p50, and a hygromycin marker for YFP[2]-p65. A linker consisting of (GGGGS)2 (SEQ ID No.1) separated the genes of interest and the YFP fragments. CHO DUKXB11 cells were seeded into 96 well plates at a density of 8×10e3 cells/well and transfected 24 hours later with YFP[1] and YFP[2] fusion genes at a 1:1 molar ratio using Fugene (Boehringer Mannheim) according to manufacturer's directions. A total of 20 ng DNA per well was used for each sample. Thirty-six hours post-transfection, cells were serum starved by incubation in 0.25% FBS-supplemented aMEM for an additional 16–18 hours. For cytokine induction, certain cells were treated with 25 ng/ml mTNF (Boehringer Mannheim) for 30 min. To examine the effect of proteasome inhibition on NFkB nuclear translocation, the serum-starved cells were treated with 40 micrograms/ml ALLN (Calbiochem) for 1 hour prior to and during the mTNF alpha induction period. The cells were rinsed with PBS and the subcellular location of NFkB complexes was visualized and images acquired using a Nikon Eclipse TE2000 fluorescence microscope at excitation and emission wavelengths of 485 nm and 527 nm, respectively. Quantitative analysis of fluorescence intensities was performed using Metamorph software (Universal Imaging, Molecular Devices, Inc.)"}, "IkBa/p65 complex": {"test_system": "IkBa/p65 complex", "assay": "stable cell line IkBa/p65 YFP PCA, mean fluorescence intensity", "format": "cell-based", "from_the_text": "TNF-induced degradation of IkBa, which is a consequence of ubiquitination and proteasomal degradation, frees bound NFkB and results in translocation of that transcription factor into the nucleus. Thus, disassembly of the IkBa-NFkB complex is a key step in NFkB-mediated gene regulation. To visualize regulation of the NFkB pathway at this level, we engineered a stable cell line expressing an IkBa/p65 PCA (FIG. 14). ERK1/MEK1 was used as a control. ERK1 was ligated to the 5′ end of YFP[1] while IkBa and MEK1 were appended to YFP[2] in N-terminal fusions. […]\nCells expressing IkBa-YFP[1]/YFP[2]-p65 or the controls, MEK-YFP[2]/ERK1-YFP[1], were seeded at 20,000 cells/well in black-walled poly-lysine coated 96 well plate (Greiner). […] Fluorescence was visualized and images were acquired using a Discovery-1 automated fluorescence imager (Molecular Devices, Inc.) equipped with excitation and emission filters 470/35 and 535/60, respectively. […]\nImages were analyzed using Image J. Total mean fluorescence intensity for all cells was assessed by adding weighted mean fluorescence intensities for the nucleus and cytoplasm for individual cells in the population for a given condition +/− standard error. […] There was no effect of TNF treatment on the fluorescence intensity of the control (MEK/ERK) PCA."}}, "note": "“Also recorded” adds a separate entry of the source. Non-standard residues stand in square brackets, D forms with d. Residues, ends and D or L forms follow the SMILES beside them. Nle = CCCC[C@H](N)C(=O)O"}
{"compound": "CCCC[C@@H](C=O)NC(=O)[C@H](CC(C)C)NC(=O)[C@H](CC(C)C)NC(C)=O", "note": "[ALLN] (Ac-Leu-Leu-[Nle]-aldehyde)", "values": [{"measurement": "effect on TNF-induced cytoplasmic-to-nuclear translocation of NFkB complexes", "setting": "NFkB (p65/p50) complex", "result": "inhibition of the TNF response; also recorded: inhibited"}, {"measurement": "inhibition of the TNF-induced reduction of IkBa/p65 complexes", "setting": "IkBa/p65 complex; ALLN treatment for 4 hr", "result": 98, "unit": "%"}, {"measurement": "effect on TNF-induced reduction in IkBa/p65 signal (in words)", "setting": "IkBa/p65 complex; FIG. 14", "result": "blocked"}]}
